# Where two headings read alike, the source gives them in different places.
# Molecular target: T1, F508delCFTR (Homo sapiens, UniProt P13569, DEL508-508)
# T1 construct: expressed in transfected cells; host or cells: CFBE41o- human lung-derived epithelial cells (CFBE4lo-F508delCFTR-HRP), doxycycline-inducible
# Assay: Cell Surface Expression-Horse Radish Peroxidase (CSE-HRP) Assay;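 on Maximum % activity (with co-corrector): co-corrector and positive control are both the same reference corrector at 2 µM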;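 on Maximum % activity (without co-corrector): percent of the 2 µM on-plate positive control corrector response above DMSO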
# Assay type: cell-based
# Settings: for Emax / Maximum % activity (with co-corrector): maximum at any tested concentration, normalized to on-plate positive control; for Emax: read-out: Maximum % activity (without co-corrector)
# [1] = test compound without co-corrector
# [2] = test compound without co-corrector, read-out: EC50 (without co-corrector)
# [3] = with co-corrector (2 μM of 3-[(2R,4R)-4-({[1-(2,2-difluoro-1,3-benzodioxol-5-yl)cyclopropyl]carbonyl}amino)-7-methoxy-3,4-dihydro-2H-chromen-2-yl]benzoic acid)
# [4] = with co-corrector (2 μM of 3-[(2R,4R)-4-({[1-(2,2-difluoro-1,3-benzodioxol-5-yl)cyclopropyl]carbonyl}amino)-7-methoxy-3,4-dihydro-2H-chromen-2-yl]benzoic acid), read-out: EC50 (with co-corrector)
# [5] = CSE-HRP, test compound without co-corrector, read-out: EC50 (without co-corrector)
# [6] = CSE-HRP, with co-corrector (2 μM of 3-[(2R,4R)-4-({[1-(2,2-difluoro-1,3-benzodioxol-5-yl)cyclopropyl]carbonyl}amino)-7-methoxy-3,4-dihydro-2H-chromen-2-yl]benzoic acid), read-out: EC50 (with co-corrector)
# [7] = CSE-HRP, with co-corrector (2 μM)
# T1 sequence (P13569 with tags, fused parts or gaps DEL508-508): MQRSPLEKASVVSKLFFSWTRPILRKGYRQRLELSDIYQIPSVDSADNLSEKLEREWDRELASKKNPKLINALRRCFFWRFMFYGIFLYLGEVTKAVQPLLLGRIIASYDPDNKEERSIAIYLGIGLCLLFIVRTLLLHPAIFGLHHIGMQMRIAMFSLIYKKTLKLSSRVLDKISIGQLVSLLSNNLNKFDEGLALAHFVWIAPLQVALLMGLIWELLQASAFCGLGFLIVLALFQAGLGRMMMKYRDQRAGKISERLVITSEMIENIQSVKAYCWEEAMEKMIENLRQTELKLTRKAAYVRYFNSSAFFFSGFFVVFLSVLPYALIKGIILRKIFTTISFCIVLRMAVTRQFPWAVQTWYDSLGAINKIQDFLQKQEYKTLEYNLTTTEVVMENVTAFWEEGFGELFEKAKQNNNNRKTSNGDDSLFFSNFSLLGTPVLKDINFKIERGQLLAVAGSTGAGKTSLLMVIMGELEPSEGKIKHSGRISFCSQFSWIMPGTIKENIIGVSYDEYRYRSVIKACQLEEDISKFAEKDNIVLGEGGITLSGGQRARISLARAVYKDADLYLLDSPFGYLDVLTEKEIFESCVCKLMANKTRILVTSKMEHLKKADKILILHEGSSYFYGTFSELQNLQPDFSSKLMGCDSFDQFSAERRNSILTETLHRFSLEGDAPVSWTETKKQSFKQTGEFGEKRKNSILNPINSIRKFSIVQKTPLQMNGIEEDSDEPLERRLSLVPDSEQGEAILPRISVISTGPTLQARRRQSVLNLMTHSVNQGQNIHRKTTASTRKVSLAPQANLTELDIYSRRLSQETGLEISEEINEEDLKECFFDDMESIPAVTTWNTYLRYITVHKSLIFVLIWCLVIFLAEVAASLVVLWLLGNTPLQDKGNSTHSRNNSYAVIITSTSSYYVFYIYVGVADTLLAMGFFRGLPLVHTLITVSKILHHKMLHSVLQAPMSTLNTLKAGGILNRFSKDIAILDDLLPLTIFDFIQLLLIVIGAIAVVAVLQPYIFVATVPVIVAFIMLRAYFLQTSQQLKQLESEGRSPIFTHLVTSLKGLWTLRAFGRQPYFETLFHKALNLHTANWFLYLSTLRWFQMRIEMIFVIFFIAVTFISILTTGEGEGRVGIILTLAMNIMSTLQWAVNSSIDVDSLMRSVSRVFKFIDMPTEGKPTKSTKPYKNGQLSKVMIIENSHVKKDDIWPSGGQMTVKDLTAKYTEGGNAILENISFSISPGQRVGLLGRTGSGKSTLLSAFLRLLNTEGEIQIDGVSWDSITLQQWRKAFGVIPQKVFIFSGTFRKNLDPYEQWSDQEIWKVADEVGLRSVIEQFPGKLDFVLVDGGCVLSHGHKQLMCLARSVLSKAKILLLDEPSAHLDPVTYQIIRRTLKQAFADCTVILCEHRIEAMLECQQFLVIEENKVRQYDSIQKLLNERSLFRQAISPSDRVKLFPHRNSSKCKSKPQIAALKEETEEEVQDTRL
SMILES,Emax [1],EC50 [2],Maximum % activity (with co-corrector) [3],EC50 [4],Maximum % activity (with co-corrector) (with co-corrector (2 μM)),EC50 [5],EC50 [6],Maximum % activity (with co-corrector) [7],"Emax (CSE-HRP, without co-corrector)",Emax (without co-corrector)
COc1ccc(C(F)(F)F)nc1CN[C@H]1[C@H](C(C)(C)C)[C@@H](C(=O)O)N(C(=O)C2CCCCC2)[C@H]1c1ccccc1 [II-408],100 to 200%,1000 to 10000 nM,+++ (≥350),1000 to 10000 nM,,,,,,
Cc1cc(C(F)(F)F)cc(N[C@@H]2[C@@H](C(C)(C)C)[C@H](C(=O)O)N(C(=O)C3CCC(F)(F)CC3)[C@@H]2c2ccccc2)n1 (racemic) [III-104],< 100%,> 10000 nM,,1000 to 10000 nM,++ (≥150 and <350),,,,,
COc1ccc(C(C)(C)C)cc1CN[C@H]1[C@H](C(C)(C)C)[C@@H](C(=O)O)N(C(=O)Cc2cccc(C#N)c2)[C@H]1c1ccccc1 [II-240],,,,,,1000 to 10000 nM,< 1000 nM,+++ (≥350),> 200%,
COc1ccc(C(F)(F)F)cc1CN[C@H]1[C@H](C(C)(C)C)[C@@H](C(=O)O)N(C(=O)C2Cc3ccccc3CO2)[C@H]1c1ccccc1 (stereo partly drawn) [II-299],,,,,,1000 to 10000 nM,1000 to 10000 nM,+++ (≥350),100 to 200%,
COc1cc(OC(F)(F)F)ccc1CN[C@@H]1[C@@H](C(C)(C)C)[C@H](C(=O)O)N(C(=O)OC(C)C)[C@@H]1c1ccccc1 (racemic) [II-41],,,,,,1000 to 10000 nM,1000 to 10000 nM,+++ (≥350),> 200%,
COc1ccc(C(C)(C)C)cc1CN[C@H]1[C@H](C(C)(C)C)[C@@H](C(=O)O)N(C(=O)c2c(C)nn(-c3ccccc3F)c2C)[C@H]1c1ccccc1 [Example I-146],,1000 to 10000 nM,,< 1000 nM,+++ (≥350),,,,,> 200%
COc1nc(C(C)(C)C)ccc1CN[C@H]1[C@H](C(C)(C)C)[C@@H](C(=O)O)N(C(=O)Cc2ccccc2C)[C@H]1c1ccccc1 [II-429],100 to 200%,< 1000 nM,+++ (≥350),< 1000 nM,,,,,,
"COc1ccc(C(C)(C)C)cc1CN[C@H]1[C@H](C(C)(C)C)[C@@H](C(=O)O)N(C(=O)OC(C)C)[C@H]1c1cccc(Cl)c1 [Example 86, (2S,3S,4S,5S)-3-tert-butyl-4-{[(5-tert-butyl-2-methoxyphenyl)methyl]amino}-5-(3-chlorophenyl)-1-{[(propan-2-yl)oxy]carbonyl}pyrrolidine-2-carboxylic acid]",,1000 to 10000 nM,,< 1000 nM,+++ (≥350),,,,,> 200%
COc1ccc(C(C)(C)C)cc1CN[C@@H]1[C@@H](C(C)(C)C)[C@@H](C(=O)O)N(C(=O)C2CCCCC2)[C@H]1c1ccccc1 [II-412],< 100%,1000 to 10000 nM,++ (≥150 and <350),1000 to 10000 nM,,,,,,
COc1cc2c(cc1CN[C@H]1[C@H](C(C)(C)C)[C@@H](C(=O)O)N(C(=O)C3CCCCC3)[C@H]1c1ccccc1)CCCC2 [II-125],,,,,,1000 to 10000 nM,< 1000 nM,+++ (≥350),> 200%,
COc1ccc(C(C)(C)C)cc1CN[C@H]1[C@H](C(C)(C)C)[C@@H](C(=O)O)N(C(=O)C2COc3ccccc3C2)[C@H]1c1ccccc1 (stereo partly drawn) [II-232],,,,,,1000 to 10000 nM,< 1000 nM,+++ (≥350),100 to 200%,
COc1ccc(C(F)(F)F)cc1CN[C@H]1[C@H](C(C)(C)C)[C@@H](C(=O)O)N(C(=O)OC(C)C)[C@H]1c1ccccc1OC [II-136],,,,,,1000 to 10000 nM,1000 to 10000 nM,+++ (≥350),100 to 200%,
CCC(C)(O)CC(=O)N1[C@H](C(=O)O)[C@@H](C(C)(C)C)[C@H](NCc2cc(C(C)(C)C)ccc2OC)[C@@H]1c1ccccc1 (stereo partly drawn) [II-371],> 200%,1000 to 10000 nM,+++ (≥350),1000 to 10000 nM,,,,,,
COc1ccc(C(F)(F)F)cc1CN[C@@H]1[C@@H](C(C)(C)C)[C@H](C(=O)O)N(C(=O)[C@H](OC)c2ccccc2)[C@@H]1c1ccccc1N(C)C [III-98],< 100%,> 10000 nM,,1000 to 10000 nM,++ (≥150 and <350),,,,,
COc1ccc(C(C)(C)C)cc1CN[C@H]1[C@H](C(C)(C)C)[C@@H](C(=O)O)N(C(=O)CC2(C)CCC(F)(F)C2)[C@H]1c1ccccc1 (stereo partly drawn) [II-220],,,,,,1000 to 10000 nM,1000 to 10000 nM,+++ (≥350),100 to 200%,
COc1nc2ccccc2cc1CN[C@H]1[C@H](C(C)(C)C)[C@@H](C(=O)O)N(C(=O)C2CCCCC2)[C@H]1c1ccccc1 [II-244],,,,,,1000 to 10000 nM,< 1000 nM,+++ (≥350),> 200%,
COc1ccc(C(C)(C)C)cc1CN[C@H]1[C@H](C(C)(C)C)[C@@H](C(=O)O)N(C(=O)c2coc3ccccc23)[C@H]1c1ccccc1 [II-185],,,,,,< 1000 nM,< 1000 nM,+++ (≥350),< 100%,

# Continued, values first:
Emax [1],EC50 [2],Maximum % activity (with co-corrector) [3],EC50 [4],Maximum % activity (with co-corrector) (with co-corrector (2 μM)),EC50 [5],EC50 [6],Maximum % activity (with co-corrector) [7],"Emax (CSE-HRP, without co-corrector)",Emax (without co-corrector),SMILES
> 200%,1000 to 10000 nM,,1000 to 10000 nM,+++ (≥350),,,,,,COc1ccc(OC(F)(F)F)cc1CN[C@H]1[C@H](C(C)(C)C)[C@@H](C(=O)O)N(C(=O)OC(C)C)[C@H]1c1cccnc1OC(C)C [III-231]
100 to 200%,1000 to 10000 nM,+++ (≥350),1000 to 10000 nM,,,,,,,COc1ncc(C(F)(F)F)cc1CN[C@H]1[C@H](C(C)(C)C)[C@@H](C(=O)O)N(C(=O)OC(C)C)[C@H]1c1cccnc1OC [II-512]
,1000 to 10000 nM,,1000 to 10000 nM,+++ (≥350),,,,,100 to 200%,COc1ncc(C(F)(F)F)cc1CN[C@H]1[C@H](C(C)(C)C)[C@@H](C(=O)O)N(C(=O)[C@@H]2CCCCO2)[C@H]1c1cccnc1N(C)C [Example I-208]
100 to 200%,1000 to 10000 nM,+++ (≥350),1000 to 10000 nM,,,,,,,COc1cc(C(F)(F)F)ccc1CN[C@H]1[C@H](C(C)(C)C)[C@@H](C(=O)O)N(C(=O)OC(C)C)[C@H]1c1cccnc1OC [II-513]
,,,,,1000 to 10000 nM,1000 to 10000 nM,+++ (≥350),> 200%,,COc1ccc(C(F)(F)F)cc1CN[C@@H]1[C@@H](C(C)(C)C)[C@H](C(=O)O)N(C(=O)C2CCCCO2)[C@@H]1c1ccccc1N(C)C (mixture of isomers) [II-20]
,< 1000 nM,,< 1000 nM,+++ (≥350),,,,,> 200%,"COc1ncc(C2CCC2)cc1CN[C@H]1[C@H](C(C)(C)C)[C@@H](C(=O)O)N(C(=O)[C@@H]2CCCC(F)(F)C2)[C@H]1c1ccccc1 [Example 69, (2S,3S,4S,5S)-3-tert-butyl-4-{[(5-cyclobutyl-2-methoxypyridin-3-yl)methyl]amino}-1-[(1R)-3,3-difluorocyclohexane-1-carbonyl]-5-phenylpyrrolidine-2-carboxylic acid]"
100 to 200%,1000 to 10000 nM,+++ (≥350),< 1000 nM,,,,,,,COc1ncc(C(F)(F)F)cc1CN[C@H]1[C@H](C(C)(C)C)[C@@H](C(=O)O)N(C(=O)[C@H](C)OC)[C@H]1c1ccccc1C(C)C [II-590]
